Test results as given in patent US20070020744A1, “Enzyme compositions that enhance the flavor of food and beverages” (Amano Enzyme USA Co., Ltd, priority 2005, published 2007).

Columns and labels:
Protease M = experiment: Relative activity on nitrophenyl-sugar substrates: Protease M; format: biochemical, Aspergillus oryzae; settings: 100 units arbitrarily chosen for the substrate on which Protease M exhibited the most activity
Description: (§1) The relative activity of Protease M and β-glycosidase on different sugar substrates was assessed. A panel of substrates comprising a nitrophenyl group conjugated to different sugars was used in the study.

β-glycosidase = experiment: Relative activity on nitrophenyl-sugar substrates: β-glycosidase; format: biochemical, Penicillium multicolor; settings: 100 units arbitrarily chosen for the substrate on which β-glycosidase exhibited the most activity
Description: as §1

Compound	relative activity of β-glycosidase for the substrate (β-glycosidase) [activity units]	relative activity of Protease M for the substrate (Protease M) [activity units]
O=[N+]([O-])c1ccc(O[C@H]2O[C@H](CO)[C@H](O)[C@H](O)[C@H]2O)cc1 [4-Nitrophenyl α-D-galactopyranoside]	100	6
O=[N+]([O-])c1ccc(O[C@@H]2O[C@H](CO)[C@@H](O[C@@H]3O[C@H](CO)[C@@H](O)[C@H](O)[C@H]3O)[C@H](O)[C@H]2O)cc1 [4-Nitrophenyl β-D-cellobioside]	55	68
O=[N+]([O-])c1ccc(O[C@@H]2O[C@H](CO)[C@@H](O[C@H]3O[C@H](CO)[C@@H](O)[C@H](O)[C@H]3O)[C@H](O)[C@H]2O)cc1 [4-Nitrophenyl β-D-maltoside]	57	63
O=[N+]([O-])c1ccc(O[C@@H]2OC[C@H](O)[C@H](O)[C@H]2O)cc1 [4-Nitrophenyl α-L-arabinopyranoside]	60	29

Continued, in another order:

relative activity of β-glycosidase for the substrate (β-glycosidase) [activity units]	Compound	relative activity of Protease M for the substrate (Protease M) [activity units]
12	O=[N+]([O-])c1ccc(O[C@@H]2O[C@H](CO)[C@@H](O)[C@H](O)[C@@H]2O)cc1 [4-Nitrophenyl β-D-mannopyranoside]	10
12	O=C(O)[C@H]1O[C@@H](Oc2ccc([N+](=O)[O-])cc2)[C@H](O)[C@@H](O)[C@@H]1O [4-Nitrophenyl β-D-glucuronide]	4
85	O=[N+]([O-])c1ccc(O[C@@H]2O[C@H](CO)[C@H](O)[C@H](O)[C@H]2O)cc1 [4-Nitrophenyl β-D-galactopyranoside]	100
19	O=[N+]([O-])c1ccc(O[C@H]2O[C@H](CO)[C@@H](O)[C@H](O)[C@@H]2O)cc1 [4-Nitrophenyl α-D-mannopyranoside]	4
19	O=[N+]([O-])c1ccc(O[C@H]2O[C@H](CO)[C@@H](O)[C@H](O)[C@H]2O)cc1 [4-Nitrophenyl α-D-glucopyranoside]	42
